Source: patent US5096924A, “Anticancer antibiotic MI43-37F11 substance” (501 Azidan Hojin Biseibutsu Kagaku Kenkyu Kai, priority 1989, dated 1992)
Values after ≈ are worked out from the molar mass of the structure shown. “Also recorded” adds a separate entry of the source.

How the values were obtained:
mouse IMC carcinoma = assay: Inhibition of proliferation of mouse IMC carcinoma cells; type: cell-based; conditions: 48 h, 37° C, 2 days
Procedure: (§1) A cell suspension containing cells of mouse Leukemia L1210, mouse Leukemia P388, mouse Leukemia EL4, mouse IMC carcinoma or human lung cancer LX-1 cells in a culture medium containing 10% calf serum at a cell density of 1 x 10^5 cells/ml was prepared, and 200 μl-portion of the cell suspension so prepared was placed in a microplate and then added with a solution of MI43-37F11 substance at varying concentrations (dissolved in a mixture of water and dimethylsulfoxide (95:5)). The cell suspension containing the test compound added was subsequently incubated at 37° C for 2 days (but 5 days for the LX-1 cells).
After the incubation, the number of the cells of the L1210 cells, P388 cells, the EL4 cells and the IMC carcinoma cells in the treated groups was counted by means of Coulter-counter. The control group (untreated) of the cell suspension to which the test compound was not added was incubated in the same way as above and then the number of the cells was similarly counted.
Rate (%) of inhibition of the cell proliferation of the treated group against that of the control group (untreated) was evaluated. […]

human lung cancer LX-1 = assay: Inhibition of proliferation of human lung cancer LX-1 cells (MTT); type: cell-based; conditions: 120 h, human lung cancer LX-1, 37° C, 5 days
Procedure: as §1, with “cells). […]” for “cells).”

Solubility = type: physicochemical
Ehrlich carcinoma [1] = assay: Therapeutic treatment of Ehrlich carcinoma-bearing mice by intraperitoneal injection; type: in vivo, ICR mice
Procedure: (a) Experiments for therapeutic treatment of Ehrlich carcinoma-bearing mice were conducted by intraperitoneal injection of the antibiotic MI43-37F11 substance. Thus, a cell suspension of Ehrlich ascites carcinoma cells was subcutaneously inoculated at the abdominal region of ICR mice (female, 6-week old, 4 mice in each treated group) so that the number of the carcinoma cells as subcutaneously transplanted was 2×10^6 cells per mouse. After the transplantation of the carcinoma cells, the antibiotic MI43-37F11 substance was administered by intraperitoneal injection to the mice having the transplanted and firmly grown carcinoma cells, according to the following schedule of administration. Namely, MI43-37F11 substance was administered at a dosage of 10 mg/kg or 2.5 mg/kg or 0.625 mg/kg only once on the 7th day after the transplantation of the cells, or alternatively MI43-37F11 substance was administered at a dosage of 2.5 mg/kg or 1.25 mg/kg or 0.625 mg/kg, totally five times but every other day from the 7th day to the 14th day after the transplantation of the carcinoma cells. The administration of MI43-37F11 substance was not made but intraperitoneal injection of physiological saline was made in the mice of the control group (untreated) (8 mice in each control group).
On the 15th day after the transplantation of the carcinoma cells, the mass of the tumor (carcinoma) was surgically removed out of each mouse and weighed. The rate of the reduction in the weight of the tumor (carcinoma) obtained from the group of mice treated with MI43-37F11 substance was evaluated in term of the rate (%) of inhibition, with such an assumption that the weight of the tumor obtained from the control group of mice was amounting to 100. In other words, the rate (%) of inhibition to the growth of Ehrlich carcinoma was calculated according to the following equation [formula] where C means the weight of the tumor in the control group of mice (untreated) and T means the weight of the tumor of the treated group of mice.

Toxicity to mammalian = type: in vivo; conditions: general statement, no data
Ehrlich carcinoma [2] = assay: Activity against Ehrlich carcinoma (general statement); type: in vivo; conditions: general statement in words
Procedure: (a) Experiments for therapeutic treatment of Ehrlich carcinoma-bearing mice were conducted by intraperitoneal injection of the antibiotic MI43-37F11 substance. Thus, a cell suspension of Ehrlich ascites carcinoma cells was subcutaneously inoculated at the abdominal region of ICR mice (female, 6-week old, 4 mice in each treated group) so that the number of the carcinoma cells as subcutaneously transplanted was 2×10^6 cells per mouse. After the transplantation of the carcinoma cells, the antibiotic MI43-37F11 substance was administered by intraperitoneal injection to the mice having the transplanted and firmly grown carcinoma cells, according to the following schedule of administration. […]
On the 15th day after the transplantation of the carcinoma cells, the mass of the tumor (carcinoma) was surgically removed out of each mouse and weighed. The rate of the reduction in the weight of the tumor (carcinoma) obtained from the group of mice treated with MI43-37F11 substance was evaluated in term of the rate (%) of inhibition, with such an assumption that the weight of the tumor obtained from the control group of mice was amounting to 100. […]

COc1cc(O)c2c(=O)oc(CO)cc2c1 [MI43-37F11 substance]
IC50 (mouse IMC carcinoma): 72 µg/mL (≈ 324 µM) | IC50 (human lung cancer LX-1): 100 µg/mL (≈ 450 µM) | Solubility (Solubility; in acetonitrile): easily soluble | Solubility (Solubility; in chloroform): soluble | Solubility (Solubility; in hexane): hardly soluble | Solubility (Solubility; in methanol): soluble | Solubility (Solubility; in water): hardly soluble | Rate (%) of Inhibition (Ehrlich carcinoma [1]; 0.625 mg/kg i.p., 7th day (only once), tumor weight on 15th day): 12% | Rate (%) of Inhibition (Ehrlich carcinoma [1]; 0.625 mg/kg/day i.p., 7th day to 14th day, every second day, totally 5 times): 30% | Rate (%) of Inhibition (Ehrlich carcinoma [1]; 1.25 mg/kg/day i.p., 7th day to 14th day, every second day, totally 5 times): 67% | Rate (%) of Inhibition (Ehrlich carcinoma [1]; 2.5 mg/kg i.p., 7th day (only once), tumor weight on 15th day): 51% | Rate (%) of Inhibition (Ehrlich carcinoma [1]; 2.5 mg/kg/day i.p., 7th day to 14th day, every second day, totally 5 times): 60% | Rate (%) of Inhibition (Ehrlich carcinoma [1]; 10 mg/kg i.p., 7th day (only once), tumor weight on 15th day): 59% | toxicity to mammalian (Toxicity to mammalian): low toxicity to mammalian; also recorded: without showing any observable toxicity to mammalian | activity against Ehrlich carcinoma (Ehrlich carcinoma [2]): high activity
